Experimental data reported in ChEMBL document CHEMBL1147179, “Synthesis and antimicrobial activity of some novel phenyl and benzimidazole substituted benzyl ethers” (2007).
In brackets after ≈: the same amount, converted by molar mass. Activity calls are given as the source filed them. The rule behind the calls is not given here.

What was measured:
[1] = tested on: Staphylococcus aureus; assay: Antibacterial activity against Staphylococcus aureus ATCC 25923 by macro-broth dilution assay; type: functional
[2] = tested on: Escherichia coli; assay: Antibacterial activity against Escherichia coli ATCC 25922 at 100 ug/ml by diffusion method; type: functional, organism-based
[3] = tested on: Staphylococcus aureus; assay: Antibacterial activity against methicillin-resistant Staphylococcus aureus ATCC 43300 by macro-broth dilution assay; type: functional
[4] = tested on: Candida albicans; assay: Antifungal activity against Candida albicans ATCC 10231 by macro-broth dilution assay; type: functional
[5] = tested on: Pichia kudriavzevii; assay: Antifungal activity against Candida krusei ATCC 6258 by macro-broth dilution assay; type: functional

Question: Which results are given for `CC1(C)S[C@@H]2[C@H](NC(=O)[C@H](N)c3ccccc3)C(=O)N2[C@H]1C(=O)O` [AMPICILLIN]?
Answer: MIC [1]: 0.78 mg/L (≈ 2.23 µM); Activity [2]: inactive; MIC [3]: 25 mg/L (≈ 71.5 µM)

Question: Which MIC [1] does the source give for `Clc1cccc(Cl)c1COC(Cn1cnc2ccccc21)c1ccccc1` (stereo unspecified) here?
Answer: 3.12 mg/L (≈ 7.85 µM)

Question: And the MIC [4]?
Answer: 12.5 mg/L (≈ 31.5 µM)

Question: What about the MIC [5] of the same molecule?
Answer: 12.5 mg/L (≈ 31.5 µM)

Question: What about the Activity [2] of the same molecule?
Answer: inactive

Question: And the MIC [3]?
Answer: 6.25 mg/L (≈ 15.7 µM)

Question: What does the source list for `Clc1ccc(COC(Cn2cnc3ccccc32)c2ccccc2)cc1Cl` (stereo unspecified)?
Answer: MIC [1]: 3.12 mg/L (≈ 7.85 µM); MIC [4]: 12.5 mg/L (≈ 31.5 µM); MIC [5]: 25 mg/L (≈ 62.9 µM); Activity [2]: inactive; MIC [3]: 25 mg/L (≈ 62.9 µM)

Question: Which results are given for `Clc1ccc(COC(Cn2cnc3ccccc32)c2ccccc2)c(Cl)c1` (stereo unspecified)?
Answer: MIC [1]: 3.12 mg/L (≈ 7.85 µM); MIC [4]: 25 mg/L (≈ 62.9 µM); MIC [5]: 25 mg/L (≈ 62.9 µM); Activity [2]: inactive; MIC [3]: 12.5 mg/L (≈ 31.5 µM)

Question: Which results are given for `c1ccc(COC(Cn2cnc3ccccc32)c2ccccc2)cc1` (stereo unspecified)?
Answer: MIC [1]: 25 mg/L (≈ 76.1 µM); MIC [4]: 25 mg/L (≈ 76.1 µM); MIC [5]: 25 mg/L (≈ 76.1 µM); Activity [2]: inactive; MIC [3]: 25 mg/L (≈ 76.1 µM)

Question: `Brc1ccc(COC(Cn2cnc3ccccc32)c2ccccc2)cc1` (stereo unspecified) was tested. Which MIC [1] did it give?
Answer: 3.12 mg/L (≈ 7.66 µM)

Question: What about the MIC [4] of the same molecule?
Answer: 25 mg/L (≈ 61.4 µM)

Question: And the MIC [5]?
Answer: 25 mg/L (≈ 61.4 µM)

Question: What about the Activity [2] of the same molecule?
Answer: inactive

Question: And the MIC [3]?
Answer: 12.5 mg/L (≈ 30.7 µM)

Question: Which Activity [2] does the source give for `Clc1ccc(Cl)c(COC(Cn2cnc3ccccc32)c2ccccc2)c1` (stereo unspecified) here?
Answer: inactive

Question: `Fc1ccc(COC(Cn2cnc3ccccc32)c2ccccc2)cc1` (stereo unspecified) was tested. Which MIC [1] did it give?
Answer: 12.5 mg/L (≈ 36.1 µM)

Question: What about the MIC [4] of the same molecule?
Answer: 25 mg/L (≈ 72.2 µM)

Question: And the MIC [5]?
Answer: 25 mg/L (≈ 72.2 µM)

Question: What about the Activity [2] of the same molecule?
Answer: inactive

Question: What about the MIC [3] of the same molecule?
Answer: 25 mg/L (≈ 72.2 µM)

Question: Which results are given for `FC(F)(F)c1ccc(COC(Cn2cnc3ccccc32)c2ccccc2)cc1` (stereo unspecified)?
Answer: MIC [1]: 6.25 mg/L (≈ 15.8 µM); MIC [4]: 25 mg/L (≈ 63.1 µM); MIC [5]: 12.5 mg/L (≈ 31.5 µM); Activity [2]: inactive; MIC [3]: 12.5 mg/L (≈ 31.5 µM)

Question: For `O=C(O)c1cn(C2CC2)c2cc(N3CCNCC3)c(F)cc2c1=O`, which Activity [2] is on record?
Answer: inactive

Question: Which results are given for `OC(Cn1cncn1)(Cn1cncn1)c1ccc(F)cc1F` [FLUCONAZOLE]?
Answer: MIC [4]: 0.78 mg/L (≈ 2.55 µM); MIC [5]: 25 mg/L (≈ 81.6 µM); Activity [2]: inactive

Question: For `Clc1ccc(COC(Cn2ccnc2)c2ccc(Cl)cc2Cl)c(Cl)c1` (stereo unspecified) [MICONAZOLE], which MIC [4] is on record?
Answer: 0.19 mg/L (≈ 0.457 µM)

Question: And the MIC [5]?
Answer: 0.78 mg/L (≈ 1.87 µM)

Question: What about the Activity [2] of the same molecule?
Answer: inactive

Question: Which MIC [1] does the source give for `Clc1ccc(COC(Cn2cnc3ccccc32)c2ccccc2)cc1` (stereo unspecified) here?
Answer: 3.12 mg/L (≈ 8.6 µM)

Question: And the MIC [4]?
Answer: 25 mg/L (≈ 68.9 µM)

Question: What about the MIC [5] of the same molecule?
Answer: 25 mg/L (≈ 68.9 µM)

Question: What about the Activity [2] of the same molecule?
Answer: inactive

Question: What about the MIC [3] of the same molecule?
Answer: 12.5 mg/L (≈ 34.4 µM)
